Data: PMC4604091, “Two homolog wheat Glycogen Synthase Kinase 3/SHAGGY - like kinases are involved in brassinosteroid signaling” (BMC Plant Biology, 2015)

Experiments:
TaGSK1 = target: T1, TaGSK1 (Triticum aestivum, UniProt Q8LK43); assay: in vitro kinase assay, […] phosphorylation of myelin basic protein, autoradiography; assay type: biochemical; conditions: read-out: % residual activity at 15 μM
T1 construct: full length, N-terminal GST fusion, expressed in E. coli, glutathione Sepharose purified, tag kept

BIN2 = target: T2, BIN2 (Arabidopsis thaliana, UniProt Q39011); assay: as above; assay type: biochemical; conditions: read-out: % residual activity at 15 μM
T2 construct: gene ASK7; full length, N-terminal GST fusion, expressed in E. coli, glutathione Sepharose purified, tag kept
T2 sequence (Q39011 1-380): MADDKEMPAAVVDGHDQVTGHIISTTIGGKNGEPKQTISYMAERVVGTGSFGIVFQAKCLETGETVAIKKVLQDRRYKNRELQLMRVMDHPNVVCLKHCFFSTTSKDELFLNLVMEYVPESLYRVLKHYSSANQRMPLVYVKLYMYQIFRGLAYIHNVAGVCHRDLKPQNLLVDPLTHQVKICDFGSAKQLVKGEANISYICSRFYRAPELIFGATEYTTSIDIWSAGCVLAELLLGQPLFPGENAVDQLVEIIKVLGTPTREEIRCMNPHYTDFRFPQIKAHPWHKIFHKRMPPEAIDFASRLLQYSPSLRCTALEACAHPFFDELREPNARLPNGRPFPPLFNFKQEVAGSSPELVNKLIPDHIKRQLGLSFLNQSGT

T1 sequence (Q8LK43 1-381): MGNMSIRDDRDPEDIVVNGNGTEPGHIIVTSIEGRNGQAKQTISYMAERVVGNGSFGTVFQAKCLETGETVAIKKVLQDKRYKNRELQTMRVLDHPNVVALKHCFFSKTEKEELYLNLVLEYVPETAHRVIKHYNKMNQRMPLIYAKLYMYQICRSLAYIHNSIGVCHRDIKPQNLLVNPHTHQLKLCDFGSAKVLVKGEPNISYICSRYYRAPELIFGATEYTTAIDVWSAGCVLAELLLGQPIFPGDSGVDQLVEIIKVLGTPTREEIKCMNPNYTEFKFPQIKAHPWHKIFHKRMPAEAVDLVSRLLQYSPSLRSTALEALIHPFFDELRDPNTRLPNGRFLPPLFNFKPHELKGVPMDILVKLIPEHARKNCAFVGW

SMILES: O=C(O)CCC(=O)Nc1ccc(Br)cn1 [Bikinin, 4-[(5-bromo-2-pyridinyl)amino]-4-oxobutanoic acid]
- remaining activity at 15 µM (TaGSK1): ~30%
- remaining activity at 15 µM (BIN2): < 5%
